Tests used:
Format in all cases: cell-based
[1] = system: Propionibacterium granulosum ATCC 25564; test: Spot on lawn method (Example IV), nisin; settings: 4,000 International Units per milliliter
Procedure: (§1) Propionibacterium acnes, Propionibacterium granulosum, or other cutaneous propionibacteria to be examined for sensitivity to the bacteriocin are grown in actinomyces broth at 37° C. for 2 days under anaerobic conditions. Cultures (15 μL) being examined for sensitivity are added to soft actinomyces agar (5 ml) and the mixture is applied uniformly over each actinomyces agar plate. Preparations concentrated so as to contain 6,400 Activity Units/ml of bacteriocins are spotted (25 μl spots) onto the surface of the prepared plates. These plates are held at 37° C. for 2 days under anaerobic conditions to permit growth of the cutaneous culture and examined for zones of inhibition (lack of growth) where the bacteriocin was applied. Zones are evidence of bacteriocin inhibition.
(§2) Specifically, a solution of nisin containing 4,000 International Units per milliliter was tested for activity against Propionibacterium acnes ATCC 6919, Propionibacterium acnes ATCC 11827, Propionibacterium avidum ATCC 25577 and Propionibacterium granulosum ATCC 25564 according to the method described in Example IV above. It was observed that nisin inhibited all of the cutaneous cultures.

[2] = system: Propionibacterium avidum ATCC 25577; test: Spot on lawn method (Example IV), nisin; settings: 4,000 International Units per milliliter
Procedure: as §1, §2

[3] = system: Propionibacterium acnes ATCC 6919; test: Spot on lawn method (Example IV), nisin; settings: 4,000 International Units per milliliter
Procedure: as §1, §2

[4] = system: Propionibacterium acnes ATCC 11827; test: Spot on lawn method (Example IV), nisin; settings: 4,000 International Units per milliliter
Procedure: as §1, §2

[5] = system: Propionibacterium granulosum ATCC 25564; test: Broth culture growth with nisin; settings: 400 International Units per milliliter, anaerobic, 37° C., 24 hours
Procedure: (§3) Nisin at a final concentration of 400 International Units per milliliter was also added to broth cultures of each of the above bacteria strains. The broth cultures were incubated anaerobically at 37° C. for 24 hours.

[6] = system: Propionibacterium avidum ATCC 25577; test: Broth culture growth with nisin; settings: 400 International Units per milliliter, anaerobic, 37° C., 24 hours
Procedure: as §3

[7] = system: Propionibacterium acnes ATCC 6919; test: Broth culture growth with nisin; settings: 400 International Units per milliliter, anaerobic, 37° C., 24 hours
Procedure: as §3

[8] = system: Propionibacterium acnes ATCC 11827; test: Broth culture growth with nisin; settings: 400 International Units per milliliter, anaerobic, 37° C., 24 hours
Procedure: as §3

## nisin
[1]
  inhibition (zones): inhibited
[2]
  inhibition (zones): inhibited
[3]
  inhibition (zones): inhibited
[4]
  inhibition (zones): inhibited
[5]
  growth of broth culture: markedly reduced the growth
[6]
  growth of broth culture: markedly reduced the growth
[7]
  growth of broth culture: markedly reduced the growth
[8]
  growth of broth culture: markedly reduced the growth
